Measured values reported in patent US11019821B2, “Fused bicyclic heterocycle derivatives as pesticides” (Bayer Aktiengesellschaft, priority 2018, dated 2021).

Experiments:
Type in all cases: in vivo
Myzus persicae [1] = test: Myzus persicae oral test; conditions: 120 h, application rate 4 ppm, after 5 days, read-out: efficacy (aphids killed)
Experimental: To produce a suitable active ingredient formulation, 1 part by weight of active ingredient is dissolved with the stated parts by weight of solvent and made up to the desired concentration with water.
50 μl of the active ingredient preparation are transferred into microtitre plates and made up to a final volume of 200 μl with 150 μl of IPL41 insect medium (33%+15% sugar). Subselog Puently, the plates are sealed with parafilm, which a mixed population of green peach aphids (Myzus persicae) within a second microtitre plate is able to puncture and imbibe the solution.
(§1) After 5 days, the efficacy in % is determined. 100% means that all the aphids have been killed; 0% means that no aphids have been killed.

Ctenocephalides felis [2] = test: Ctenocephalides felis oral test; conditions: application rate 100 ppm in citrated cattle blood, after 2 days, adult cat fleas
Experimental: (§2) Solvent: dimethyl sulfoxide
To produce a suitable active ingredient formulation, 10 mg of active ingredient are mixed with 0.5 ml of dimethyl sulfoxide. Dilution with citrated cattle blood gives the desired concentration.
About 20 unfed adult cat fleas (Ctenocephalides felis) are placed into a chamber which is closed at the top and bottom with gauze. A metal cylinder whose bottom end is closed with parafilm is placed onto the chamber. The cylinder contains the blood/active ingredient formulation, which can be imbibed by the fleas through the parafilm membrane.
After 2 days, the kill in % is determined. 100% means that all of the fleas have been killed; 0% means that none of the fleas have been killed.

Lucilia cuprina = Lucilia cuprina test; conditions: application rate 100 ppm, after 2 days, L1 larvae
Experimental: as §2
(§3) To produce a suitable active ingredient formulation, 10 mg of active ingredient are mixed with 0.5 ml of dimethyl sulfoxide, and the concentrate is diluted with water to the desired concentration.
About 20 L1 larvae of the Australian sheep blowfly (Lucilia cuprina) are transferred into a test vessel containing minced horsemeat and the active ingredient formulation of the desired concentration.
After 2 days, the kill in % is determined. 100% means that all the larvae have been killed; 0% means that no larvae have been killed.

Musca domestica = Musca domestica test; conditions: application rate 100 ppm, after 2 days, adult houseflies
Experimental: as §2, §3
Vessels containing a sponge treated with sugar solution and the active ingredient formulation of the desired concentration are populated with 10 adult houseflies (Musca domestica).
After 2 days, the kill in % is determined. 100% means that all of the flies have been killed; 0% means that none of the flies have been killed.

Myzus persicae [3] = test: Myzus persicae spray test; conditions: foliar, 120 h, application rate 100 g/ha, after 5 days, Chinese cabbage leaf discs, read-out: efficacy (aphids killed)
Experimental: To produce a suitable active ingredient formulation, 1 part by weight of active ingredient is dissolved with the specified parts by weight of solvent and made up to the desired concentration with water containing an emulsifier concentration of 1000 ppm. To produce further test concentrations, the formulation is diluted with emulsifier-containing water.
Discs of Chinese cabbage leaves (Brassica pekinensis) infested by all stages of the green peach aphid (Myzus persicae) are sprayed with an active ingredient formulation of the desired concentration.
as §1

Rhipicephalus sanguineus = Rhipicephalus sanguineus in vitro contact test with adult brown dog ticks; conditions: application rate 5 μg/cm^2 (=500 g/ha), after 48 h
Experimental: (§4) For the coating of the test tubes, 9 mg of active ingredient are first dissolved in 1 ml of acetone p.a. and then diluted to the desired concentration with acetone p.a. 250 μl of the solution are distributed homogeneously on the inner walls and base of a 25 ml test tube by turning and rocking on an orbital shaker (rocking rotation at 30 rpm for 2 h). With 900 ppm active ingredient solution and internal surface 44.7 cm^2, given homogeneous distribution, an area-based dose of 5 μg/cm^2 is achieved.
After the solvent has evaporated off, the tubes are populated with 5-10 adult dog ticks (Rhipicephalus sanguineus), sealed with a perforated plastic lid and incubated in a horizontal position in the dark at room temperature and ambient humidity. After 48 h, efficacy is determined. To this end, the ticks are knocked to the floor of the tube and incubated on a hotplate at 45-50° C. for not more than 5 min. Ticks which remain motionless on the floor or move in such an uncoordinated manner that they are unable to deliberately avoid the heat by climbing upwards are considered to be dead or moribund.
100% efficacy means that all the ticks were dead or moribund. 0% efficacy means that none of the ticks had been harmed.

Ctenocephalides felis [4] = test: Ctenocephalides felis in vitro contact test with adult cat fleas; conditions: application rate 5 μg/cm^2 (=500 g/ha), after 48 h
Experimental: as §4, with “walls and the base of” for “walls and base of”, “25 ml glass tube by” for “25 ml test tube by”, “900 ppm of active ingredient” for “900 ppm active ingredient”, “internal surface area 44.7 cm^2,” for “internal surface 44.7 cm^2,”
After the solvent has evaporated off, the tubes are populated with 5-10 adult cat fleas (Ctenocephalides felis), sealed with a perforated plastic lid and incubated in a horizontal position at room temperature and ambient humidity. After 48 h, efficacy is determined. To this end, the tubes are stood upright and the fleas are knocked to the base of the tube. Fleas which remain motionless at the base or move in an uncoordinated manner are considered to be dead or moribund.
100% efficacy means that all the fleas were dead or moribund. 0% efficacy means that no fleas were harmed.

Boophilus microplus = Boophilus microplus injection test; conditions: application rate 20 μg/animal, assessed after 7 days, engorged adult female cattle ticks
Experimental: as §2
To produce a suitable active ingredient formulation, 10 mg of active ingredient are mixed with 0.5 ml of solvent and the concentrate is diluted to the desired concentration with solvent.
1 μl of the active ingredient solution is injected into the abdomen of 5 engorged adult female cattle ticks (Boophilus microplus). The animals are transferred into dishes and kept in a climate-controlled room.
Efficacy is assessed after 7 days by laying of fertile eggs. Eggs which are not visibly fertile are stored in a climate-controlled cabinet until the larvae hatch after about 42 days. An efficacy of 100% means that none of the ticks has laid any fertile eggs; 0% means that all the eggs are fertile.

| SMILES | pest or weed control at 4 ppm (Myzus persicae [1]) | efficacy (kill in %) (Ctenocephalides felis [2]) | efficacy (kill in %) (Lucilia cuprina) | efficacy (kill in %) (Musca domestica) | pest or weed control at 100 g/ha (Myzus persicae [3]) | efficacy (ticks dead or moribund) (Rhipicephalus sanguineus) | efficacy (fleas dead or moribund) (Ctenocephalides felis [4]) | efficacy (no laying of fertile eggs) (Boophilus microplus) |
| --- | --- | --- | --- | --- | --- | --- | --- | --- |
| CCS(=O)(=O)c1c(-c2nc3cc(C(F)(F)F)ncc3n2C)nn2c1CCCC2 [Example I-02] | 100% | 90% | 100% | 80% | 90% |  |  |  |
| CCS(=O)(=O)c1c(-c2nc3cc(C(F)(F)F)ncc3n2C)nn2c1CC(C)CC2 (stereo not drawn) [Example I-05] | 100% | 95% |  | 80% | 100% | 100% | 100% | 100% |
